No end group written: not given here.
Tests used:
E. coli ML35p = test: Simultaneous outer and inner membrane permeation (nitrocefin / ONPG); type: cell-based, Escherichia coli; conditions: 3.1 µM
Excerpt: To confirm the mechanism of action, we also performed membrane permeation using a reporter strain of E. coli ML35p. This strain enabled simultaneous monitoring of membrane permeation of both the inner and outer membranes of Gram-negative bacterium E. coli. Both WW295 and WW298 were included in the experiment. […] This is indicated by the sharp development of absorbance at 490 nm for nitrocefin (panel A) and at 420 nm for ONPG (panel B).
The E. coli ML-35p strain was utilized to probe the permeation of both the outer membrane (OM) and inner membrane (IM). This strain was engineered to have two membrane reporters. Nitrocefin is used for detection of OM permeabilization. Nitrocefin is excluded from the periplasm. […] The chromogenic cleavage product was spectrophotometrically monitored at 490 nm. […] However, permeabilization of the IM helps ONPG to enter cytoplasm and get cleaved by cytoplasmic β-galactosidase into o-nitrophenol, which can be detected spectrophotometrically at 420 nm. […] Absorbances at both 490 and at 420 nm were monitored using FLUOstar Omega (BMG, Labtech, NC, USA) simultaneously. After shaking at 100 rpm, readings were taken every 2 min for a total of 40 min at 37 °C. Data were analyzed using the MARS data analysis software provided by the manufacturer and representative plots were made using the GraphPad Prism 7 software.

S. aureus USA300 LAC [1] = test: Membrane depolarization, DiBAC4(3); type: cell-based, Staphylococcus aureus; conditions: 12.5 µM
Experimental: Bacteria surfaces are negative and cationic peptides are able to neutralize the negative charge, thereby reducing membrane potential. To test this possibility, we evaluated the peptides against S. aureus USA300 LAC using a fluorescent indicator dye, the DiBAC4(3) (Figure 5).
The overnight culture of S. aureus USA300 LAC was grown in TSB media to the exponential phase. Cells were then pelleted and washed with PBS twice, and re-suspended in twice the volume of PBS containing 25 mM glucose for 15 min at 37 °C. For membrane depolarization measurements, 250 nM (final concentration) of the dye DiBAC4(3) (bis-(1,3-dibutylbarbituric acid) trimethine oxonol (ANASPEC, Fremont, CA, USA) was added, and vortexed gently. Ninety microliters of the energized bacteria solution were then added in a 96-well microtiter plate (Corning COSTAR). The plate was immediately placed into a FLUOstar Omega (BMG LABTECH Inc., Cary, NC, USA) microplate reader and fluorescence was measured for 20 min. Once the readings are stabilized, 10 μL of peptide solution were added and the fluorescence readings were continued for another 40 min. Measurements were done at an excitation and emission wavelengths of 485 and 520 nm, respectively. Triton X-100 (0.1%) was included as a positive control.

S. aureus USA300 LAC [2] = test: Disruption of 24 h established biofilms (XTT); type: cell-based, Staphylococcus aureus; conditions: 24 h treatment
Experimental: We also compared the effects of the peptides on established biofilms (24 h). […] When cells are alive (in the absence of peptide), the cell-permeant calcein-AM dye could enter the cells and gave green color as a consequence of the removal of acetoxymethyl (AM) esters by intracellular esterase (Figure 7A). When the cells were dead due to membrane damage by the peptide, the red dye ethidium homodimer (non-membrane permeable) could enter the cell and become red by binding to nucleic acids (Figure 7B).
The antibiofilm activity of the peptide against 24 h established biofilms was evaluated as previously described. In short, S. aureus USA300 LAC (10^5 CFU/mL) was made from exponential phase bacteria in TSB media and 180 μL were distributed to each well of the microtiter plate (Corning Costar Cat No. 3595, Amsterdam, The Netherlands). The plates were incubated at 37 °C for 24 h to form a biofilm. Culture treated with water served as a positive control while media without bacterial inoculation served as the negative control. Media were then pipetted out and the attached biofilms were washed with 1× PBS to remove the planktonic bacteria. Each well of the plate was then filled with 20 μL of 10× peptide solution and 180 μL of fresh TSB media and the plates were further incubated at 37 °C for 24 h. Media were then pipetted out and the wells were washed with 1× PBS to remove planktonic cells. The live cells in biofilms were estimated by XTT assay as mentioned above.

S. aureus USA300 LAC [3] = test: Inhibition of biofilm attachment (XTT); type: cell-based, Staphylococcus aureus; conditions: 12.5 µM; 1 h, XTT
Excerpt: Antimicrobial effects of the peptides are different on diverse forms of bacteria. The free and motile forms cultivated in laboratories are the planktonic bacteria onto which the peptides and antibiotics can have direct effects. However, the activity of the microbicides can be reduced to the biofilm forms where bacteria are less exposed and hidden inside the shield. The development of the biofilms starts with the attachment of the individual cells on the substratum followed by biofilm growth and maturation into more solid biomass. We tested the ability of WW295 and WW298 in fighting the biofilms of S. aureus USA300 LAC at the two stages. […] These 96-well commercial plates were pre-treated commercially with tissue culture to enhance cell adhesion.
This experiment was performed to measure the ability of the peptide to inhibit bacterial attachment, the initial step for biofilm formation. In short, an overnight culture of S. aureus USA300 was grown in TSB media to an optical density (600 nm) of ∼1.0. […] Live cells in the biofilms were then quantitated using XTT [2,3-bis(2-methyloxy-4-nitro-5-sulfophenyl)-2H-tertazolium-5-carboxanilide] assay by following the manufacturer’s instructions with modifications. […] Absorbance at 450 nm (only media with XTT containing wells served as the blank) was obtained using a Chromate^TM microtiter plate reader. […]

E. coli K12 = type: cell-based, Escherichia coli; conditions: K12
Experimental: (§1) The antimicrobial activity spectrum of the WW peptide series was performed on a panel of Gram-positive and -negative bacteria using the standard broth micro-dilution method with minor modifications as described. […] There was a small change in the case of Pseudomonas aeruginosa and Acinetobacter baumannii up to two-fold. Four-fold changes were found for Staphylococcus aureus, Staphylococcus epidermidis, Escherichia coli, and Bacillus subtilis. However, we observed over eight-fold MIC changes for Klebsiella pneumoniae and vancomycin-resistant enterococcus (VRE). […] We also observed more than eight-fold changes in minimal bacterial killing concentrations.
(§2) The antibacterial activity of peptides was evaluated using a standard broth microdilution protocol with minor modifications as previously described. In brief, logarithmic phase bacterial cultures (i.e., optical density at 600 nm ≈ 0.5) were diluted to OD600~0.001 and partitioned into a 96-well polystyrene microplate at 90 μL per well. After treatment with 10 μL of peptide solutions two-fold diluted to various concentrations, microplates were incubated at 37 °C overnight and read on a ChroMate 4300 Microplate Reader at 630 nm (GMI, Ramsey, MN). […] Minimal bactericidal concentration (MBC) was determined by plating the clear wells at MIC or above. The peptide concentration that caused no bacterial growth on the petri dish is MBC.

E. coli ATCC 25922 = type: cell-based, Escherichia coli; conditions: ATCC 25922
Experimental: (§3) To gain additional insight, we also compared the effects of physiological saline and human serum on the antibacterial activities of WW291-WW298 using both E. coli and S. aureus (Table 3). In our assays, salts and serum were present during the entire course of the experiment. […] Thus, WW295 and WW298 stand out in terms of activity robustness (bold in Table 3).
as §2

[4] = tested on: monkey kidney Vero E6 cells; type: cell-based
Experimental: Peptides were assayed for potential in vitro toxicity against human keratinocytes (HaCaT) and THP-1 cells as previously described. THP-1 monocytes were differentiated into macrophages by adding 30 ng/mL of phorbol 12-myristate 13-acetate (PMA; Sigma-Aldrich) to RPMI 1640 supplemented with 10% fetal calf serum culture (FCS) medium for 16 h. Briefly, cells were seeded at a density of 3 × 10^4 per well in a tissue culture 96-well plate in DMEM/RPMI supplemented with 10% fetal bovine serum (FBS), and incubated at 37 °C in a 5% CO2 atmosphere for 24 h. African green monkey kidney Vero E6 cells were cultivated in EMEM in the same manner. Before antimicrobial treatment, wells were replaced with serum free media and treated with peptides at different concentrations for one hour. After incubation, the cells were washed and incubated with 100 μL of DMEM media containing 20 μL of 3-(4,5-dimethylthiazol-2-yl)-5-(3-carboxymethoxyphenyl)-2-(4-sulfophenyl)-2H-tetrazolium (MTS) reagent for two hours at 37 °C. […] Absorbance readings at 492 nm were taken using a ChroMate microplate reader (GMI, Ramsey, MN, USA).

A. baumannii B28-16 = type: cell-based, Acinetobacter baumannii; conditions: B28-16
Experimental: as §1, §2

E. faecium VRE = type: cell-based; conditions: VRE
Experimental: as §1, §2

K. pneumonia ATCC 13883 = conditions: cited from earlier work
Excerpt: Table 2 Antibacterial activities of the WW peptides against various bacteria. | column: Minimal Inhibitory Concentration (MIC, μM) / KP ^a

chicken red blood cells = test: Hemolytic assay; type: cell-based
Experimental: (§4) Hemolytic assays of peptides were performed as previously described. Briefly, human red blood cells (hRBCs) obtained from UNMC Blood Bank, or chicken or porcine blood cells purchased from commercial sources as previously described, were washed three times with phosphate buffer saline (PBS) and diluted to a 2% solution (V/v). After peptide treatment, incubation at 37 °C for one hour, and centrifugation at 13,000 rpm, aliquots of the supernatant were carefully transferred to a fresh 96-well microplate. The amount of hemoglobin released was measured at 545 nm. The percent lysis was calculated by assuming 100% release when human blood cells were treated with 2% Triton X-100, and 0% release when incubated with PBS buffer. The peptide concentration that caused 50% lysis of hRBCs is defined as HC50.

human red blood cells = test: Hemolytic assay; type: cell-based; conditions: red cells of human
Experimental: as §4

B. subtilis 167 = type: cell-based, Bacillus subtilis; conditions: 167
Experimental: as §1, §2

P. aeruginosa PAO1 = type: cell-based, Pseudomonas aeruginosa; conditions: PAO1
Experimental: as §1, §2

S. aureus USA300 = type: cell-based, Staphylococcus aureus; conditions: USA300
Experimental: as §2

S. aureus Mu50 = type: cell-based, Staphylococcus aureus; conditions: Mu50
Experimental: as §1, §2

S. aureus USA300 LAC [5] = type: cell-based, Staphylococcus aureus; conditions: USA300
Experimental: as §3, §2

Compound: CCCCCCCCCC(=O)N[C@@H](Cc1c[nH]c2ccccc12)C(=O)N[C@H](CC(N)=O)C(=O)N[C@@H](CC(=O)O)C(=O)N[C@@H]1C(=O)NCC(=O)N[C@@H](CCCN)C(=O)N[C@@H](CC(=O)O)C(=O)N[C@H](C)C(=O)N[C@@H](CC(=O)O)C(=O)NCC(=O)N[C@H](CO)C(=O)N[C@@H]([C@H](C)CC(=O)O)C(=O)N[C@@H](CC(=O)c2ccccc2N)C(=O)O[C@@H]1C [daptomycin, reference compound]
- outer and inner membrane permeation (nitrocefin 490 nm, ONPG 420 nm) (E. coli ML35p): poor in membrane permeation
- membrane depolarization (DiBAC4(3) fluorescence) (S. aureus USA300 LAC [1]): significantly less membrane depolarization
- disruption of established biofilms (24 h) (S. aureus USA300 LAC [2]; 3.1 µM): much less effective than WW298
- disruption of established biofilms (24 h) (S. aureus USA300 LAC [2]; 6.25 µM): eradicating almost all the established biofilm
- inhibition of MRSA adherence (S. aureus USA300 LAC [3]): ~ 50%

Compound: WWWLRKIW [WW291]
- Minimal Inhibitory Concentration (MIC), EC (E. coli K12): 6.2 to 12.5 µM
- MIC, +150 mM NaCl (E. coli ATCC 25922): 12.5 µM
- MIC, +10% Human Serum (E. coli ATCC 25922): >25 µM
- MIC, TSB (E. coli ATCC 25922): 6.2 to 12.5 µM
- Vero Cells, concentration that caused 50% cell death (LC50) [4]: 100 µM
- Minimal Inhibitory Concentration (MIC), AB (A. baumannii B28-16): 6.25 µM
- Minimal Inhibitory Concentration (MIC), VRE (E. faecium VRE): 25 µM
- Minimal Inhibitory Concentration (MIC), KP (K. pneumonia ATCC 13883): 12.5 µM
- Chicken RBC, concentration that caused 50% red blood cell lysis (HC50) (chicken red blood cells): 50 µM
- Human RBC, concentration that caused 50% red blood cell lysis (HC50) (human red blood cells): 30 µM
- Minimal Inhibitory Concentration (MIC), BS (B. subtilis 167): 6.25 µM
- Minimal Inhibitory Concentration (MIC), PA (P. aeruginosa PAO1): 50 µM
- MBC, USA300 (S. aureus USA300): 6.2 µM
- Minimal Inhibitory Concentration (MIC), SA (S. aureus Mu50): 3.1 µM
- MIC, +150 mM NaCl (S. aureus USA300 LAC [5]): 3.1 µM
- MIC, +10% Human Serum (S. aureus USA300 LAC [5]): 25 µM
- MIC, TSB (S. aureus USA300 LAC [5]): 3.1 µM
